According to US20240374567A1, “Combination Treatments for Cancer Patients and Methods for Identifying Same” (Scandion Oncology A/S, priority 2021, published 2024):

System: UGT1A1
Assay: Clinical study of SCO-101 with FOLFIRI: serum bilirubin and bilirubin index after SCO-101
Format: in vivo, human
Procedure: The term “bilirubin index” as used herein or “bilirubin index score” which are used interchangeably, refer to a patient's rate of bilirubin normalization subsequent to administration of an UGT1A1 inhibitor to the patient. Herein, the bilirubin index is determined subsequent to administration of an UGT1A1 inhibitor to the patient for a number of consecutive days, such as 1, 2, 3, 4, 5, or 6, preferably 6 days. Based on 6 consecutive days of administration with an UGT1A1 inhibitor, the bilirubin index is determined as the bilirubin serum or plasma concentration (unconjugated or total bilirubin) on day 12 divided with the bilirubin serum or plasma concentration on day 7 and thus is an indicator of how much the patients' UGT1A1 activity has normalized following cessation of SCO-101 treatment and can be determined using bilirubin as a surrogate marker.
Bilirubin: Blood sampling for analysis of bilirubin (total, unconjugated and conjugated) were withdrawn at Screening (up to 4 weeks prior start of treatment), day 5, day 7 and day 12 in the first treatment cycle.
Likely, the increase in unconjugated bilirubin is mediated through inhibition of the enzyme UDP-glucuronosyltransferase 1 family, polypeptide A1 (UGT1A1). UGT1A1 is an enzyme responsible for conjugation of poorly soluble endo- and xenobiotics making them more soluble and possible to excrete. UGT1A1 is the primary enzyme responsible for conjugation of bilirubin and metabolism of Irinotecan's active metabolite SN-38. The bilirubin index score is the bilirubin serum concentration (unconjugated or total bilirubin) on day 12 divided with the bilirubin serum concentration on day 7 and thus is an indicator of how much the patients' UGT1A1 activity has normalized following cessation of SCO-101 treatment, and can be determined using bilirubin as a surrogate marker. In FIG. 2, an overview of the bilirubin index for all patients is included. The mean bilirubin index score for the six RAS wild type patients is approximately 0.15 (lowest 0.04, highest 0.28) whereas the mean score for the six RAS mutated patients is 0.59 (lowest 0.25, highest 0.76). Thus, there is a strong indication that the bilirubin index can predict a patient's tolerability to treatment.

For `O=C(Nc1cc(C(F)(F)F)cc(C(F)(F)F)c1)Nc1ccc(Br)cc1-c1nnn[nH]1` [SCO-101], the “reversibility of bilirubin increase / UGT1A1 inhibition” value (after discontinuation of SCO-101 treatment) was “completely reversible”, the “bilirubin index (bilirubin serum concentration on day 12 divided with day 7)” value (patients with RAS mutation, cohort 1 (150 mg SCO-101), cycle 1) was “above 0.4” and the “effect on unconjugated bilirubin serum concentration” value (patients, SCO-101 days 1 to 6) was “specific and dose dependent increase”. For the same compound, the “highest bilirubin index score” value (six RAS mutated patients) was 0.76, the “lowest bilirubin index score” value (six RAS mutated patients) was 0.25 and the “mean bilirubin index score” value (six RAS mutated patients) was 0.59. The “highest bilirubin index score” value (six RAS wild type patients) was 0.28, the “lowest bilirubin index score” value (six RAS wild type patients) was 0.04 and the “mean bilirubin index score” value (six RAS wild type patients) was “approximately 0.15”.
